Results: patent publication US4689326A, “Process for controlling hyperlipidemia” (Research Corporation, priority 1985, dated 1987)

Test system: ^3 H-cholesterol
Assay: Effect on 3H Cholesterol Distribution in Rats, Example 12
Type: in vivo, Sprague Dawley rats
Conditions: oral 20 mg/kg/day
Experimental: A group of 6 Sprague Dawley rats, each weighing approximately 300 g, were treated with 3,4,5,6-dibenzohomopiperdine applied orally at a dosage of 20 mg/kg per day for 4 days. Six similar Sprague Dawley rats were untreated and served as a control. On the 13th day, 10 μCi of ^3 H-cholesterol was administered orally. The rats were sacrificed and tissue samples were combusted or plated on filter paper, dried and digested for 24 hours in hyamine hydroxide at 40° C. and counted. Results of this test are reported as disintegrations per minute (DPM) per total organ.
In Table 10, the average organ weight and feces of the treated and untreated rats are reported. The table indicates the concentration of ^3 H-cholesterol in the organs and feces of the treated and untreated (control) rats.

In the case of `c1ccc2c(c1)CNCc1ccccc1-2` [Compound 3, 3,4,5,6-dibenzohomopiperidine], the “3H-cholesterol, Treated % Recovery” value (brain) is reported as 0.162%, the “3H-cholesterol, Treated DPM per total organ” value (brain) is reported as 9,216 DPM and the “3H-cholesterol, Treated % Recovery” value (chyme) is reported as 11.739%. For the same compound, the “3H-cholesterol, Treated DPM” value (chyme) was 667,840 DPM, the “3H-cholesterol, Treated % Recovery” value (feces) was 14.462% and the “3H-cholesterol, Treated DPM” value (feces) was 822,719 DPM. The “3H-cholesterol, Treated % Recovery” value (heart) was 0.452%, the “3H-cholesterol, Treated DPM per total organ” value (heart) was 25,692 DPM and the “3H-cholesterol, Treated % Recovery” value (kidney) was 0.652%. The “3H-cholesterol, Treated DPM per total organ” value (kidney) was 37,096 DPM, the “3H-cholesterol, Treated % Recovery” value (large intestine) was 3.757% and the “3H-cholesterol, Treated DPM per total organ” value (large intestine) was 213,777 DPM. For the same compound, the “3H-cholesterol, Treated % Recovery” value (liver) was 23.615%, the “3H-cholesterol, Treated DPM per total organ” value (liver) was 1,343,450 DPM and the “3H-cholesterol, Treated % Recovery” value (lung) was 2.183%. The “3H-cholesterol, Treated DPM per total organ” value (lung) was 124,180 DPM, the “3H-cholesterol, Treated DPM” value (plasma) was 26,018 DPM and the “3H-cholesterol, Treated % Recovery” value (small intestine) was 38.525%. The “3H-cholesterol, Treated DPM per total organ” value (small intestine) was 2,191,623 DPM, the “3H-cholesterol, Treated % Recovery” value (spleen) was 1.806% and the “3H-cholesterol, Treated DPM per total organ” value (spleen) was 102,723 DPM. The “3H-cholesterol, Treated % Recovery” value (stomach) was 2.189% and the “3H-cholesterol, Treated DPM per total organ” value (stomach) was 124,552 DPM.
